Measured values published in patent US9296748B2, “Pyridinones” (Boehringer Ingelheim International GmbH, priority 2013, dated 2016).

Molecular target: BRD4-BD1 (Homo sapiens (Human), UniProt O60885)
Assay: BRD4-H4 Tetraacetylated Peptide Inhibition AlphaScreen
Format: binding
Details: GST-BRD4-BD1 (aa 44-168), biotinylated Acetyl-Histone H4 peptide
Experimental: Compounds are diluted in serial dilution 1:5 in assay buffer from 10 mM stock in DMSO (100 μM start concentration) in white OptiPlate-384 (PerkinElmer). […] Subsequently, 6 μl of premixed AlphaLISA Glutathione Acceptor Beads and AlphaScreen Streptavidin Donor Beads from PerkinElmer (in assay buffer at a concentration of 10 μg/ml each) are added and the samples are incubated for 30 min at RT in the dark (shaking 300 rpm). Afterwards, the signal is measured in a PerkinElmer Envision HTS Multilabel Reader using the AlphaScreen protocol from PerkinElmer. […] Negative control values are entered as low basis value when using the software GraphPad Prism for calculations. Furthermore, a positive control (probe molecule JQ1+ with protein/peptide mix) is pipetted. Determination of IC50 values are carried out using GraphPad Prism 3.03 software (or updates thereof).

| SMILES | IC50 [nM] |
| --- | --- |
| Cc1cc(-c2nc3ccc(N4CCN(C)CC4)cc3n2Cc2ccccc2)cn(C)c1=O [Example I-1, 5-[1-Benzyl-6-(4-methylpiperazin-1-yl)-1H-1,3-benzodiazol-2-yl]-1,3-dimethyl-1,2-dihydropyridin-2-one] | 12 |
| Cn1cc(-c2nc3ccccc3n2Cc2ccccc2)ccc1=O [Example I-2] | 1540 |
| Cc1cc(-c2nc3ccc(N4CCOCC4)cc3n2Cc2ccccc2)c[nH]c1=O [Example I-3] | 109 |
| Cn1cc(-c2nc3ccc(N4CCOCC4)cc3n2Cc2ccccc2)ccc1=O [Example I-4] | 515 |
| CN1CCN(c2ccc3nc(-c4ccc(=O)n(C)c4)n(Cc4ccccc4)c3c2)CC1 [Example I-5] | 547 |
| Cc1cc(-c2nc3ccc(N4CCOCC4)cc3n2Cc2ccccc2)cn(C)c1=O [Example I-6] | 19 |
| Cc1cc(-c2nc3ccc(N4CCN(C)CC4)cc3n2Cc2ccccc2)c[nH]c1=O [Example I-7] | 95 |
| Cc1cc(-c2nc3ccccc3n2Cc2ccccc2)c[nH]c1=O [Example I-8] | 609 |
| Cc1cc(-c2nc3ccc(N)cc3n2Cc2ccccc2)cn(C)c1=O [Example I-9, 5-(6-Amino-1-benzyl-1H-benzoimidazol-2-yl)-1,3-dimethyl-1H-pyridin-2-one] | 58 |
| CCn1cc(-c2nc3ccc(N4CCN(C)CC4)cc3n2Cc2ccccc2)cc(C)c1=O [Example I-10] | 49 |
| Cc1cc(-c2nc3ccc(N4CCN(C)CC4)cc3n2Cc2ccccc2)nn(C)c1=O [Example I-11] | 12 |
| Cc1cc(-c2nc3ccc(F)cc3n2Cc2ccccc2)cn(C)c1=O [Example I-12, 5-(1-Benzyl-6-fluoro-1H-benzoimidazol-2-yl)-1,3-dimethyl-1H-pyridin-2-one] | 18 |
| Cc1cc(-c2nc3ccccc3n2Cc2ccccc2)cn(C)c1=O [Example I-13] | 68 |
| Cc1nc(-c2nc3ccc(N4CCN(C)CC4)cc3n2Cc2ccccc2)cn(C)c1=O [Example I-14] | 36 |
| Cn1nc(-c2nc3ccccc3n2Cc2ccccc2)ccc1=O [Example I-15] | 1380 |
| CN1CCN(c2ccc3nc(-c4ccc(=O)n(C)n4)n(Cc4ccccc4)c3c2)CC1 [Example I-16] | 192 |
| Cn1cc(-c2nc3ccccc3n2Cc2ccccc2)ncc1=O [Example I-18] | 1110 |
| Cn1cc(-c2nc3ccc(N4CCOCC4)cc3n2Cc2ccccc2)ncc1=O [Example I-19] | 298 |
| CN1CCN(c2ccc3nc(-c4cn(C)c(=O)cn4)n(Cc4ccccc4)c3c2)CC1 [Example I-20] | 121 |
| Cc1nc(-c2nc3ccccc3n2Cc2ccccc2)cn(C)c1=O [Example I-21] | 201 |

| SMILES | IC50 [nM] |
| --- | --- |
| COc1ccc2nc(-c3cc(C)c(=O)n(C)c3)n(Cc3ccccc3)c2c1 [Example I-22] | 44 |
| Cc1cc(-c2nc3ccc(C#N)cc3n2Cc2ccccc2)cn(C)c1=O [Example I-23] | 190 |
| Cc1cc(-c2nc3ccc(C(=O)N(C)C)cc3n2Cc2ccccc2)cn(C)c1=O [Example I-24] | 128 |
| Cc1cc(-c2nc3ccc(C4CCOCC4)cc3n2Cc2ccccn2)cn(C)c1=O [Example I-25] | 72 |
| COC[C@H](C)n1c(-c2cc(C)c(=O)n(C)c2)nc2ccc(C3CCOCC3)cc21 [Example I-26] | 96 |
| Cc1cc(-c2nc3ccc(C4CCOCC4)cc3n2[C@@H](C)c2ccccn2)cn(C)c1=O [Example I-27] | 103 |
| COC[C@H](C)n1c(-c2cc(C)c(=O)n(C)c2)nc2ccc(C(C)C)cc21 [Example I-28] | 174 |
| Cc1cc(-c2nc3ccc(C(C)C)cc3n2[C@@H](C)c2ccccn2)cn(C)c1=O [Example I-29] | 180 |
| Cc1cc(-c2nc3ccc(C4(C(F)(F)F)CC4)cc3n2Cc2ccccn2)cn(C)c1=O [Example I-30] | 63 |
| COC[C@H](C)n1c(-c2cc(C)c(=O)n(C)c2)nc2ccc(N3CCOC[C@@H]3C)cc21 [Example I-31] | 75 |
| COC[C@H](C)n1c(-c2cc(C)c(=O)n(C)c2)nc2ccc(N)cc21 [Example I-32] | 268 |
| Cc1cc(-c2nc3ccc(C4CN(C)CCO4)cc3n2[C@@H](C)c2ccccc2)nn(C)c1=O (stereo partly shown) [Example I-33] | 47 |
| Cc1cc(-c2nc3ccc(C4CN(C)CCO4)cc3n2[C@@H](C)c2ccccc2)cn(C)c1=O (stereo partly shown) [Example I-34] | 49 |
| Cc1cc(-c2nc3ccc(C4CCN(C)C(=O)C4)cc3n2[C@@H](C)c2ccccc2)cn(C)c1=O (stereo partly shown) [Example I-35] | 23 |
| COC[C@H](C)n1c(-c2cc(C)c(=O)n(C)n2)nc2ccc(N3CCOC[C@@H]3C)cc21 [Example I-36] | 65 |
| Cc1cc(-c2nc3ccc(C4(C(F)(F)F)CC4)cc3n2[C@@H](C)c2ccccc2)cn(C)c1=O [Example I-37] | 103 |
| Cc1cc(-c2nc3ccc(C4CCN(C)C(=O)C4)cc3n2[C@@H](C)c2ccccc2)nn(C)c1=O (stereo partly shown) [Example I-38] | 32 |
| CC1CC(=O)NN=C1c1ccc2c(c1)nc(-c1cc(N)c(=O)n(C)c1)n2Cc1ccccc1 (stereo not shown) [Example V-1, 6-[2-(5-Amino-1-methyl-6-oxo-1,6-dihydro-pyridin-3-yl)-1-benzyl-1H-benzoimidazol-5-yl]-5-methyl-4,5-dihydro-2H-pyridazin-3-one] | 145 |
| Cn1cc(-c2nc3ccccc3n2Cc2ccccc2)cc(N)c1=O [Example V-2, 3-amino-5-(1-benzyl-1H-benzoimidazol-2-yl)-1-methyl-1H-pyridin-2-one] | 1350 |
| CN1CCN(c2ccc3nc(-c4cc(N)c(=O)n(C)c4)n(Cc4ccccc4)c3c2)CC1 [Example V-3] | 73 |

The next lines start with the values.

| IC50 [nM] | SMILES |
| --- | --- |
| 42 | Cc1cc(-c2nc3cnc(OCC4CC4)cc3n2C(C)c2ccccn2)cn(C)c1=O (racemic) [II-21, 5-[6-Cyclopropylmethoxy-1-(1-pyridin-2-yl-ethyl)-1H-imidazo[4,5-c]pyridin-2-yl]-1,3-dimethyl-1H-pyridin-2-one] |
| 133 | Cn1cc(-c2nc3ccc(N4CCOCC4)cc3n2Cc2ccccc2)cc(N)c1=O [Example V-4] |
| 19 | Cc1cc(-c2nc3cnc(N4CCN(C)CC4)cc3n2Cc2ccccc2)cn(C)c1=O [II-1] |
| 54 | Cc1cc(-c2nc3cnc(N4CCOCC4)cc3n2Cc2ccccn2)cn(C)c1=O [II-2] |
| 18 | Cc1cc(-c2nc3cnc(N4CCOCC4)cc3n2Cc2ccccc2)cn(C)c1=O [II-3, 5-(1-Benzyl-6-morpholin-4-yl-1H-imidazo[4,5-c]pyridin-2-yl)-1,3-dimethyl-1H-pyridin-2-one] |
| 55 | CCn1cc(-c2nc3cnc(N4CCN(C)CC4)cc3n2Cc2ccccc2)cc(C)c1=O [II-4] |
| 12 | Cc1cc(-c2nc3cnc(N4CCN(C)CC4)cc3n2Cc2ccccc2)nn(C)c1=O [II-5] |
| 163 | CCn1cc(-c2nc3cnc(N4CCOCC4)cc3n2Cc2ccccc2)cc(C)c1=O [II-6] |
| 175 | Cc1cc(-c2nc3cnc(Cl)cc3n2Cc2ccccc2)cn(C)c1=O [II-7, 5-(1-Benzyl-6-chloro-1H-imidazo[4,5-c]pyridin-2-yl)-1,3-dimethyl-1H-pyridin-2-one] |
| 148 | Cc1cc(-c2nc3cnccc3n2Cc2ccccc2)cn(C)c1=O [II-8] |
| 30 | Cc1cc(-c2nc3cnc(N(C)C)cc3n2Cc2ccccc2)cn(C)c1=O [II-9] |
| 45 | Cc1nc(-c2nc3cnc(N4CCN(C)CC4)cc3n2Cc2ccccc2)cn(C)c1=O [II-10] |
| 102 | COC[C@H](C)n1c(-c2cc(C)c(=O)n(C)c2)nc2cnc(N3CCOC[C@@H]3C)cc21 [II-11] |
| 49 | Cc1nc(-c2nc3cnc(N4CCOCC4)cc3n2Cc2ccccc2)cn(C)c1=O [II-12] |
| 102 | Cc1cc(-c2nc3cnc(-n4ccnc4)cc3n2Cc2ccccc2)cn(C)c1=O [II-13, 5-(1-Benzyl-6-imidazol-1-yl-1H-imidazo[4,5-c]pyridin-2-yl)-1,3-dimethyl-1H-pyridin-2-one] |
| 63 | Cc1cc(-c2nc3cnc(N4CCOCC4)cc3n2Cc2ccncc2)cn(C)c1=O [II-14] |
| 42 | Cc1cc(-c2nc3cnc(N4CCOC[C@@H]4C)cc3n2Cc2ccccc2)cn(C)c1=O [II-15] |
| 68 | Cc1cc(-c2nc3cnc(N)cc3n2Cc2ccccc2)cn(C)c1=O [II-16, 5-(6-Amino-1-benzyl-1H-imidazo[4,5-c]pyridin-2-yl)-1,3-dimethyl-1H-pyridin-2-one] |
| 160 | Cc1cc(-c2nc3cnc(N4CCOC[C@@H]4C)cc3n2Cc2ccccn2)cn(C)c1=O [II-17] |
| 233 | Cc1cc(-c2nc3cnc(N4CCOCC4)cc3n2[C@H](C)c2ccccc2)cn(C)c1=O [II-18] |
| 27 | Cc1cc(-c2nc3cnc(N4CCOCC4)cc3n2[C@@H](C)c2ccccc2)cn(C)c1=O [II-19] |
| 33 | Cc1cc(-c2nc3cnc(N4CCOCC4)cc3n2Cc2cccnc2)cn(C)c1=O [II-20] |
| 34 | Cc1cc(-c2nc3cnc(N4CCN(C)CC4)cc3n2C(C)c2ccccn2)cn(C)c1=O (stereo not shown) [II-22] |
| 33 | Cc1cc(-c2nc3cnccc3n2Cc2ccc(Cl)cc2)cn(C)c1=O [II-23] |
| 38 | Cc1cc(-c2nc3cnc(C(C)C)cc3n2[C@@H](C)c2ccccc2)cn(C)c1=O [II-24] |
| 8 | Cc1cc(-c2nc3cnc(C4CCOCC4)cc3n2[C@@H](C)c2ccccc2)nn(C)c1=O [II-25] |
| 16 | Cc1cc(-c2nc3cnc(C4CCOCC4)cc3n2[C@@H](C)c2ccccc2)cn(C)c1=O [II-26] |
| 166 | Cc1cc(-c2nc3cnccc3n2Cc2ccc(F)c(F)c2)cn(C)c1=O [II-27] |
| 128 | Cc1cc(-c2nc3cnccc3n2Cc2ccccc2F)cn(C)c1=O [II-28] |
| 130 | Cc1cc(-c2nc3cnc(N4CCOC[C@@H]4C)cc3n2[C@@H](C)c2ccccn2)cn(C)c1=O [II-29] |
